Test results reported in article PMC5012620, “Blocking the Interactions between Calcium-Bound S100A12 Protein and the V Domain of RAGE Using Tranilast” (PLoS ONE, 2016).

T1: S100A12 (Homo sapiens, UniProt P80511)
T1 sequence (P80511 2-92): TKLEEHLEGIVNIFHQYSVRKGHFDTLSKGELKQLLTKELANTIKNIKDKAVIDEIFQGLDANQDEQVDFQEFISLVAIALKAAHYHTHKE

T2: RAGE V domain V domain (Homo sapiens, UniProt Q15109)
T2 chain: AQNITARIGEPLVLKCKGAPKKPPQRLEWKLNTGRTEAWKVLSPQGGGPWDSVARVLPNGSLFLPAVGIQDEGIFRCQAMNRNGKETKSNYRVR


What was measured:
S100A12 = molecular target: T1, S100A12; assay: fluorescence titration (tranilast emission, excitation […] nm); 1H-15N HSQC NMR titration; type: binding
RAGE V domain V domain = molecular target: T2, RAGE V domain V domain; assay: fluorescence titration (Trp)

Molecule	Kd (S100A12) [µM]	Kd (RAGE V domain V domain) [µM]
COc1ccc(/C=C/C(=O)Nc2ccccc2C(=O)O)cc1OC [tranilast]	6.1 ± 1.4	–
S100A12 (protein, Ca2+) TKLEEHLEGIVNIFHQYSVRKGHFDTLSKGELKQLLTKELANTIKNIKDKAVIDEIFQGLDANQDEQVDFQEFISLVAIALKAAHYHTHKE	–	~3.1
